Results reported in PubChem BioAssay (NCI).
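Test compounds were applied to cells in 96-well plates for 48 hours at 5 doses. The concentration for 50% growth inhibition is given as GI50. TGI marks complete inhibition of growth.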

Key:
Assay in all cases: NCI tumour cell line growth inhibition, 48 h
[1] = tested on: HCC-2998 colon
[2] = tested on: SK-MEL-5 melanoma
[3] = tested on: SNB-75 CNS
[4] = tested on: HCT-15 colon
[5] = tested on: CCRF-CEM leukemia
[6] = tested on: HOP-62 NSCLC
[7] = tested on: UACC-257 melanoma
[8] = tested on: TK-10 renal
[9] = tested on: OVCAR-8 ovarian
[10] = tested on: IGROV1 ovarian

SMILES | TGI [1] [µM] | TGI [2] [µM] | TGI [3] [µM] | TGI [4] [µM] | TGI [5] [µM] | TGI [6] [µM] | TGI [7] [µM] | TGI [8] [µM] | TGI [9] [µM] | TGI [10] [µM] | GI50 [1] [µM] | GI50 [2] [µM] | GI50 [3] [µM] | GI50 [4] [µM] | GI50 [5] [µM] | GI50 [6] [µM] | GI50 [7] [µM] | GI50 [8] [µM] | GI50 [9] [µM] | GI50 [10] [µM]
COc1ccccc1C1CC(=O)CC(c2ccccc2OC)C12C(=O)NC(=S)NC2=O (stereo not given) | > 100 | > 100 | > 100 | > 100 | > 100 | > 100 | > 100 | > 100 | > 100 | > 100 |  |  |  |  |  |  |  |  |  | 
CCOC(=O)NC(C(F)(F)F)(C(F)(F)F)P(=O)(OC(C)C)OC(C)C | > 100 | > 100 | > 100 | > 100 | > 100 | > 100 | > 100 | > 100 | > 100 | > 100 |  |  |  |  |  |  |  |  |  | 
COc1ccc2c(c1)CC[C@@H]1[C@@H]2CC[C@]2(C)C(=O)C3(CCCCC3)C[C@@H]12 | > 100 | > 100 | > 100 | > 100 | > 100 | > 100 | > 100 | > 100 | > 100 | > 100 | > 100 | > 100 | > 100 | > 100 | > 100 | > 100 | 44.8 | > 100 | > 100 | > 100
C=CCONC(=O)c1ccc(Cl)cc1 | > 100 | > 100 | > 100 | > 100 | > 100 | > 100 | > 100 | > 100 | > 100 | > 100 |  |  |  |  |  |  |  |  |  | 
CC1=NC(=O)C(C)(c2ccccc2)N1CCc1ccccc1 (stereo not given) | > 100 | > 100 | > 100 | > 100 | > 100 | > 100 | > 100 | > 100 | > 100 | > 100 |  |  |  |  |  |  |  |  |  | 
COc1ccc(Br)c2c1CC(C(=O)O)CC2 (stereo not given) | > 100 | > 100 | > 100 | > 100 | > 100 | > 100 | > 100 | > 100 | > 100 | > 100 |  |  |  |  |  |  |  |  |  | 
CCCCCC(=O)Nc1n[nH]nc1C(N)=O | > 100 | > 100 | > 100 | > 100 | > 100 | > 100 | > 100 | > 100 | > 100 | > 100 |  |  |  |  |  |  |  |  |  | 
COc1ccc(/C=C(\Cl)c2ccc(OC)c(OC)c2)cc1OC | > 100 | > 100 | > 100 | > 100 | > 100 | > 100 | > 100 | > 100 | > 100 | > 100 |  |  |  |  |  |  |  |  |  | 
NC(=O)OCC(COc1ccc(Cl)cc1)OC(=O)c1ccccc1Cl (stereo not given) | 43.5 | 33.1 | > 100 | 30 | 47.4 | 49.2 | 37.8 | 79.9 | 54.3 | 59.9 |  |  |  |  |  |  |  |  |  | 
c1csc(-c2cscc2-c2ccsc2)c1 | > 89.6 | > 100 | > 100 | > 100 | > 100 | > 100 | > 100 | > 100 | > 100 | > 100 |  |  |  |  |  |  |  |  |  | 
O=C1NC(N2CCOCC2)=N/C1=C\c1cccs1 | > 100 | > 100 | > 100 | > 100 | > 100 | > 100 | > 100 | > 100 | > 100 | > 100 |  |  |  |  |  |  |  |  |  | 
CCCCc1ccc(Nc2nc(Cl)c3c(ncn3COCCOC(C)=O)n2)cc1 | 34.3 | 36.2 | 16.5 | 30.7 | 60.7 | 31.5 | 31.4 | 41.8 | 33.6 | 40.2 |  |  |  |  |  |  |  |  |  | 
O=C(NC(C(F)(F)F)(C(F)(F)F)P(=O)(c1ccccc1)c1ccccc1)C(C(F)(F)F)C(F)(F)F | > 100 | 37 | 91.3 | 83.3 | > 100 | > 100 | 82.2 | 72.7 | 72.8 | 57.7 |  |  |  |  |  |  |  |  |  | 
